Laboratory results from paper PMC10949639, “Engineering Escherichia coli for high-yielding 2,5-Dimethylpyrazine synthesis from L-Threonine by reconstructing metabolic pathways and enhancing cofactors regeneration” (Biotechnology for Biofuels and Bioproducts, 2024).

Columns and labels:
[1] = target: T1, EcTDH (L-threonine dehydrogenase) (Escherichia coli, UniProt P07913); test: NADH formation at […] nm, lysate supernatant; type: biochemical; settings: 100 mM Tris-HCl pH 9.0, 100 mM L-threonine, 50 mM NAD+, 30 °C
T1 construct: gene tdh; recombinant from pACYCDuet-1 (BamH I/Hind III) in E. coli BL21(DE3); crude lysate supernatant; gene about 1100 bp
T1 sequence (P07913 1-341): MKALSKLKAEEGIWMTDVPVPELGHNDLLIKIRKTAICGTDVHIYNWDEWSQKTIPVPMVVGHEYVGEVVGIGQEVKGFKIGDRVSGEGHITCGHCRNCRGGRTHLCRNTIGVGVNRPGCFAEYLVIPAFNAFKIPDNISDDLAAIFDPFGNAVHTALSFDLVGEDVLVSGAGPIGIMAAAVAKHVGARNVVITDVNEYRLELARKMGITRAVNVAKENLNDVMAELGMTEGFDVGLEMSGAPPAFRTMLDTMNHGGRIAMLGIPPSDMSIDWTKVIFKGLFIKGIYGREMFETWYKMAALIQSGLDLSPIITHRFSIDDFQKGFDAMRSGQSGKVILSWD

[2] = target: T2, EhNOX (NADH oxidase) (Enterococcus hirae, UniProt I6S3N3); test: NADH consumption, lysate supernatant; type: biochemical; settings: 200 μM NADH, 10 μM FAD, 1 mM dithiothreitol, 20 mM citrate-sodium citrate pH 5.6
T2 construct: gene EHR_12315; recombinant from pACYCDuet-1-Ectdh-Ehnox (Nde I/Xho I) in E. coli BL21(DE3), co-expressed with EcTDH; crude lysate supernatant; gene about 1400 bp
T2 sequence (I6S3N3 1-450): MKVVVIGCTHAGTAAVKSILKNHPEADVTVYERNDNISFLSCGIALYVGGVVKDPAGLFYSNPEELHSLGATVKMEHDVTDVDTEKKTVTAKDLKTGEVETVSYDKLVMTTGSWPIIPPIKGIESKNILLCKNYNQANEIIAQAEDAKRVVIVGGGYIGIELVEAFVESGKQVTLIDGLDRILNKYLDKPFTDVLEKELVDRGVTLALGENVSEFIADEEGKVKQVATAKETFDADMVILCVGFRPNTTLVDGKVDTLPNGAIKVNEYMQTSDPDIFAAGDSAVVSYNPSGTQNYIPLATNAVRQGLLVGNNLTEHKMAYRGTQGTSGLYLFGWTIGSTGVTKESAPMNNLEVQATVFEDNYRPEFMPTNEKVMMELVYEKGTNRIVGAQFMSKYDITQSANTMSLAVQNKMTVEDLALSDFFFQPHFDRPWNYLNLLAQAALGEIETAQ

C[C@@H](O)[C@H](N)C(=O)O [L-threonine]
NADH formation at 340 nm, lysate supernatant [1]: The enzyme activity of EcTDH was determined using L-threonine as the substrate

NC(=O)C1=CN([C@@H]2O[C@H](COP(=O)(O)OP(=O)(O)OC[C@H]3O[C@@H](n4cnc5c(N)ncnc54)[C@H](O)[C@@H]3O)[C@@H](O)[C@H]2O)C=CC1 [NADH]
NADH consumption, lysate supernatant [2]: The enzyme activity of EhNOX was determined using NADH as substrate
